Data published in ChEMBL document CHEMBL1158719, “Cytotoxic xanthones from Cudrania tricuspidata” (J Nat Prod, 2005).

Assays:
A549 = assay: Cytotoxicity against human A549 cells after 48 hrs by SRB assay; format: functional, cell-based; details: A549, 48 h
SK-OV-3 = assay: Cytotoxicity against human SKOV3 cells after 48 hrs by SRB assay; format: functional, cell-based; details: SK-OV-3, 48 h

C=CC(C)(C)c1c(O)cc(O)c2c(=O)c3c(CC=C(C)C)c(O)c(O)cc3oc12 [CUDRATRICUSXANTHONE A]
IC50 (A549): 5.93 µM
IC50 (SK-OV-3): 7.09 µM

C=CC(C)(C)c1c(O)cc2oc3c(CC=C(C)C)c(O)c(O)cc3c(=O)c2c1O [CUDRAXANTHONE L]
IC50 (A549): 3.15 µM
IC50 (SK-OV-3): 4.72 µM

C=CC(C)(C)c1c(O)c(CC=C(C)C)c2oc3cc(O)c(O)cc3c(=O)c2c1O [MACLURAXANTHONE B]
IC50 (A549): 2.88 µM
IC50 (SK-OV-3): 4.24 µM

CC(=O)O[C@H]1C(=O)[C@@]2(C)[C@H]([C@H](OC(=O)c3ccccc3)[C@]3(O)C[C@H](OC(=O)[C@H](O)[C@@H](NC(=O)c4ccccc4)c4ccccc4)C(C)=C1C3(C)C)[C@]1(OC(C)=O)CO[C@@H]1C[C@@H]2O [PACLITAXEL]
IC50 (A549): 1.25 µM
IC50 (SK-OV-3): 1.35 µM
